Test results published in patent US20170107482A1, “ANIMAL CELL REGENERATION SPEED CONTROLLING METHOD AND ANIMAL CELL REGENERATION SPEED CONTROLLER” (TOYOTA BOSHOKU KABUSHIKI KAISHA, priority 2015, published 2017).

System: Planarians (Dugesia japonica)
Test: Animal cell regeneration experiment (ii): head (eye) regeneration of cut planarians after immersion in Azakenpaullone
Type: in vivo
Details: 0.5 μM, 24 h immersion; for individuals died and disappeared before regeneration: among the total nine individuals
Protocol: Hereinafter, the present invention will be specifically described using Examples. In the following Examples 1 and 2, regeneration experiment was conducted using Planarians (Dugesia japonica) as one kind of flatworm.
Thereafter, the planarians belonging to Groups A and B were respectively placed in petri dishes, so that the amount of water per planarian was 2.5 mL, in a thermostat bath set to a temperature of 13° C. The planarians were grown for 14 days ([…]) under a condition and in an environment such that water was changed every three days. The respective regeneration states of their heads in this period were observed over time with an optical microscope every 24 hours after cutting to evaluate the degree of regeneration after 14 days had elapsed based on the following three references (see Teresa Adel et al., Dev Genes Evol (2008) 218:89-103, as for the references for the degree of regeneration). The planarians ranked as “regeneration degree 2” or “regeneration degree 3” were determined to “have been regenerated,” and those ranked as “regeneration degree 1” were determined to “be unregenerated.” The number of planarians determined to “have been regenerated” was counted over time, and the result thereof is indicated in Table 1.
“Regeneration degree 1”: Eyes being developed cannot be identified.
“Regeneration degree 2”: Eyes being developed can be identified.
“Regeneration degree 3”: Eyes can be identified.
Firstly, planarians having an equivalent size were selected, and divided into Group C (n=9) and Group D (n=9). For the planarians belonging to Group C, the living bodies were cut near the center at a timing in the same time zone as that for Group A in Example 1 (namely, immediately after the RGA turned downward from the maximum value immediately before) (see FIG. 2).
For the planarians (n=9) belonging to Group D, the living bodies were cut near the center at a timing in the same time zone as that for Group B in Example 1 (namely, immediately after the RGA turned upward from the minimum value immediately before) (see FIG. 2).
Thereafter, the planarians belonging to Groups C and D were respectively immersed for 24 hours in a solution of Azakenpaullone that is a drug suppressing normal differentiation at a concentration of 0.5 μM, then placed in petri dishes, so that the amount of water per planarian was 2.5 mL, in a thermostat bath set to a temperature of 13° C., and were grown for 15 days ([…]) under a condition and in an environment such that water was changed every three days. The respective regeneration states of their heads were observed over time with an optical microscope every 24 hours after cutting to evaluate the degree of regeneration after 15 days had elapsed in the same manner as in Example 1. At this time, the planarians were determined as to whether they “had been regenerated” or “were unregenerated” in the same manner as in Example 1. The number of planarians determined to “have been regenerated” was counted over time, and the result thereof is indicated in Table 2.
The treating method using Azakenpaullone was referred to a description of Teresa Adel et al., Dev Genes Evol 218(2008) 89-103.

O=C1Cc2c([nH]c3ccc(Br)cc23)-c2ncccc2N1 [Azakenpaullone]
0: Number of planarians determined to have been regenerated (cumulative) (Group C (n=9), cut immediately after RGA turned downward from maximum, 0 h after cutting) | Number of planarians determined to have been regenerated (cumulative) (Group C (n=9), cut immediately after RGA turned downward from maximum, 24 h after cutting) | Number of planarians determined to have been regenerated (cumulative) (Group C (n=9), cut immediately after RGA turned downward from maximum, 48 h after cutting) | Number of planarians determined to have been regenerated (cumulative) (Group C (n=9), cut immediately after RGA turned downward from maximum, 72 h after cutting) | Number of planarians determined to have been regenerated (cumulative) (Group C (n=9), cut immediately after RGA turned downward from maximum, 96 h after cutting) | Number of planarians determined to have been regenerated (cumulative) (Group C (n=9), cut immediately after RGA turned downward from maximum, 120 h after cutting) | Number of planarians determined to have been regenerated (cumulative) (Group C (n=9), cut immediately after RGA turned downward from maximum, 144 h after cutting) | Number of planarians determined to have been regenerated (cumulative) (Group C (n=9), cut immediately after RGA turned downward from maximum, 168 h after cutting) | Number of planarians determined to have been regenerated (cumulative) (Group C (n=9), cut immediately after RGA turned downward from maximum, 192 h after cutting) | Number of planarians determined to have been regenerated (cumulative) (Group D (n=9), cut immediately after RGA turned upward from minimum, 0 h after cutting) | Number of planarians determined to have been regenerated (cumulative) (Group D (n=9), cut immediately after RGA turned upward from minimum, 24 h after cutting) | Number of planarians determined to have been regenerated (cumulative) (Group D (n=9), cut immediately after RGA turned upward from minimum, 48 h after cutting) | Number of planarians determined to have been regenerated (cumulative) (Group D (n=9), cut immediately after RGA turned upward from minimum, 72 h after cutting) | Number of planarians determined to have been regenerated (cumulative) (Group D (n=9), cut immediately after RGA turned upward from minimum, 96 h after cutting) | Number of planarians determined to have been regenerated (cumulative) (Group D (n=9), cut immediately after RGA turned upward from minimum, 120 h after cutting) | Number of planarians determined to have been regenerated (cumulative) (Group D (n=9), cut immediately after RGA turned upward from minimum, 144 h after cutting) | Number of planarians determined to have been regenerated (cumulative) (Group D (n=9), cut immediately after RGA turned upward from minimum, 168 h after cutting) | Number of planarians determined to have been regenerated (cumulative) (Group D (n=9), cut immediately after RGA turned upward from minimum, 192 h after cutting) | Number of planarians determined to have been regenerated (cumulative) (Group D (n=9), cut immediately after RGA turned upward from minimum, 216 h after cutting)
6: Number of planarians determined to have been regenerated (cumulative) (Group D (n=9), cut immediately after RGA turned upward from minimum, 240 h after cutting) | Number of planarians determined to have been regenerated (cumulative) (Group D (n=9), cut immediately after RGA turned upward from minimum, 264 h after cutting) | Number of planarians determined to have been regenerated (cumulative) (Group D (n=9), cut immediately after RGA turned upward from minimum, 288 h after cutting) | Number of planarians determined to have been regenerated (cumulative) (Group D (n=9), cut immediately after RGA turned upward from minimum, 312 h after cutting) | Number of planarians determined to have been regenerated (cumulative) (Group D (n=9), cut immediately after RGA turned upward from minimum, 336 h after cutting) | Number of planarians determined to have been regenerated (cumulative) (Group D (n=9), cut immediately after RGA turned upward from minimum, 360 h after cutting)
three: individuals died and disappeared before regeneration (Group D, cut immediately after RGA turned upward)
1: Number of planarians determined to have been regenerated (cumulative) (Group C (n=9), cut immediately after RGA turned downward from maximum, 216 h after cutting)
2: Number of planarians determined to have been regenerated (cumulative) (Group C (n=9), cut immediately after RGA turned downward from maximum, 240 h after cutting) | Number of planarians determined to have been regenerated (cumulative) (Group C (n=9), cut immediately after RGA turned downward from maximum, 264 h after cutting)
5: Number of planarians determined to have been regenerated (cumulative) (Group C (n=9), cut immediately after RGA turned downward from maximum, 360 h after cutting)
3: Number of planarians determined to have been regenerated (cumulative) (Group C (n=9), cut immediately after RGA turned downward from maximum, 288 h after cutting)
four: individuals died and disappeared before regeneration (Group C, cut immediately after RGA turned downward)
4: Number of planarians determined to have been regenerated (cumulative) (Group C (n=9), cut immediately after RGA turned downward from maximum, 312 h after cutting) | Number of planarians determined to have been regenerated (cumulative) (Group C (n=9), cut immediately after RGA turned downward from maximum, 336 h after cutting)
